The source of these data is PMC4049246 (The Journal of Organic Chemistry, 2014).

Molecules are shown by their SMILES.

One series concerns the target ERBB2 (Homo sapiens, UniProt P04626). Kind of series: Inhibition of NRGβ1-induced ERBB2 tyrosine phosphorylation in MCF7 cells. The settings on record: for inhibition of NRGβ1-induced phosphorylation of ERBB2: MCF7 cells. In kind it is cell-based.
Series [1] in a line: Octanol/water partition coefficient. In kind it is physicochemical.
A short description of series [2]: UV-vis absorption, fluorescence emission and lifetime in chloroform. The settings on record: for Δν / ε / ϕem: CHCl3; for ϕem: ±10%, perylene in cyclohexane as reference; for τ1: fluorescence lifetime component 1; for τ2: fluorescence lifetime component 2; for f1: fraction of lifetime component 1; for f2: fraction of lifetime component 2.
For series [3] the following is noted: physiologically relevant concentrations; cited from earlier work.

Chain of ERBB2 (P04626 23-1255): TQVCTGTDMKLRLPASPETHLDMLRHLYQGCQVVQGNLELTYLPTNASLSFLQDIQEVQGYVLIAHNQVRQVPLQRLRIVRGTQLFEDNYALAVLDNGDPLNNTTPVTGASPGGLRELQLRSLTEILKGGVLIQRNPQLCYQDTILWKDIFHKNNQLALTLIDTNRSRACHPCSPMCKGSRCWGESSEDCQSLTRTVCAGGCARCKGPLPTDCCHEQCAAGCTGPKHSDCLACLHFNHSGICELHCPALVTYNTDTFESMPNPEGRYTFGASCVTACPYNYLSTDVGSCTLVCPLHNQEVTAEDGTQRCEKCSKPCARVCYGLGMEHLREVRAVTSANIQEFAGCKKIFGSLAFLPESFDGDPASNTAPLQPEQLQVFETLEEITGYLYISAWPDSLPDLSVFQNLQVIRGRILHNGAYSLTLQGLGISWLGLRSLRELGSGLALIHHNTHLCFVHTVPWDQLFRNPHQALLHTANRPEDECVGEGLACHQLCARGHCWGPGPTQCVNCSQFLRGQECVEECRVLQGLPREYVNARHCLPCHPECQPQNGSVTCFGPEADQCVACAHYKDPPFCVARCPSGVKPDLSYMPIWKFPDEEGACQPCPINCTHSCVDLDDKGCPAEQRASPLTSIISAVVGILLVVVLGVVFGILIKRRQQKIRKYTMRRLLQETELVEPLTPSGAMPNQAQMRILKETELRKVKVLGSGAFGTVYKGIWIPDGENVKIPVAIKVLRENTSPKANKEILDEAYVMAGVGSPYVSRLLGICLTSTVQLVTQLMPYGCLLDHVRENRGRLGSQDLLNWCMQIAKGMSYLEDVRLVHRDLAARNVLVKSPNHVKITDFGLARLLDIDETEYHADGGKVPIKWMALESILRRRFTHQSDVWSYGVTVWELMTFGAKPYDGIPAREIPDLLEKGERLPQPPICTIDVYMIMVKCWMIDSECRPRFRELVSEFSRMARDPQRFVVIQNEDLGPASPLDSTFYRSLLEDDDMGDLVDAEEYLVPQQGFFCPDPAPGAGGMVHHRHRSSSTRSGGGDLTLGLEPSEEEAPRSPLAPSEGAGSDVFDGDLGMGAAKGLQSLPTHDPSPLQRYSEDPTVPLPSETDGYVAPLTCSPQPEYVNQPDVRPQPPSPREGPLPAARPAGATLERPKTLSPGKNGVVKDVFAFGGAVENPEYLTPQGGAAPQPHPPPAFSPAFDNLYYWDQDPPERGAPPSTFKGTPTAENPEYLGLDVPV

For orientation: Ki means the dissociation constant of the complex between target and ligand, obtained from inhibition or displacement. `CN(C)c1ccc(-c2ccc3ncnc(Nc4ccccc4)c3c2)cc1` [1a, 6-(4-(Dimethylamino)phenyl)-N-phenylquinazolin-4-amine]: the Ki on ERBB2 came out at 10 µM. The figures for the “inhibition of NRGβ1-induced phosphorylation of ERBB2” value (from here on “inhibition”) against ERBB2 (100 nM probe) and on ERBB2 (10 μM probe) were “little to no inhibitory action” and “showed inhibition”, respectively. Further, the “log Poctanol/water” value in series [1] was 1.50.
For the compound `COc1ccc(-c2ccc3ncnc(Nc4ccccc4)c3c2)cc1` [1b, 6-(4-Methoxyphenyl)-N-phenylquinazolin-4-amine], in series [2], the Δν was 9130 cm^–1, the ε is 14 300 M^–1 cm^–1, the ϕem worked out at 0.02 and the τ1 was determined as 1.39 ns. In series [2], this compound registered a τ2 of 6.76 ns, a f1 of 0.70 and a f2 of 0.30.
For `CS(=O)(=O)CCNCc1ccc(-c2ccc3ncnc(Nc4ccc(OCc5cccc(F)c5)c(Cl)c4)c3c2)o1` [lapatinib], the aggregation entry in series [3] is recorded as “significant aggregation”.
Consider `C(=C\c1ccc2ncnc(Nc3ccccc3)c2c1)/c1ccccc1` [2c, (E)-N-Phenyl-6-styrylquinazolin-4-amine], for which, in series [2], the Δν was determined as 7350 cm^–1, the ε is recorded as 21 900 M^–1 cm^–1, the ϕem came to 0.02 and the τ1 came to 0.05 ns. In series [2], this compound registered a τ2 of 1.75 ns, a f1 of 0.11 and a f2 of 0.89.
For `O=[N+]([O-])c1ccc(/C=C/C=C/c2ccc3ncnc(Nc4ccccc4)c3c2)cc1` [3e, 6-((1E,3E)-4-(4-Nitrophenyl)buta-1,3-dienyl)-N-phenylquinazolin-4-amine], the “inhibition” value is recorded as “little to no inhibitory action” against ERBB2 (100 nM probe) and “showed inhibition” on ERBB2 (10 μM probe).
With `O=[N+]([O-])c1ccc(-c2ccc3ncnc(Nc4ccccc4)c3c2)cc1` [1e, 6-(4-Nitrophenyl)-N-phenylquinazolin-4-amine], in series [2], the Δν was 6480 cm^–1, the ε was 19 700 M^–1 cm^–1, the ϕem is given as 0.006 and the τ1 amounted to 0.11 ns. In addition, in series [2], the τ2 is reported as 1.56 ns, the f1 is listed as 0.74 and the f2 worked out at 0.26.
Turning to `CN(C)c1ccc(/C=C/c2ccc3ncnc(Nc4ccccc4)c3c2)cc1` [2a, (E)-6-(4-Dimethylaminostyryl)-N-phenylquinazolin-4-amine], the “inhibition” value was “little to no inhibitory action” on ERBB2 (100 nM probe) and “showed inhibition” on ERBB2 (10 μM probe).
